From BindingDB's records for patent US11773085 (Foghorn Therapeutics, 2023)

Biological target: T1, Bromodomain-containing protein 9 [133-239] (Homo sapiens, UniProt Q9H8M2)
T1 construct: 133-239
T1 sequence (Q9H8M2 whole entry): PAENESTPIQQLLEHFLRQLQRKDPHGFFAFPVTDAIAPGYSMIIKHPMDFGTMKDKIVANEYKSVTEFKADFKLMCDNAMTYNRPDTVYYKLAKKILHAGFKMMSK
Experiment: BRD9 Bromodomain TR-FRET Competition Binding Assay
Method: A mixture of biotinylated-ligand and SureLight Allophycocyanin-Streptavidin (APC-SA, PerkinElmer AD0201) in 50 mM HEPES (pH 7.4), 50 mM NaCl, 1 mM TCEP (pH 7), 0.01% (v/v) Tween-20, 0.01% (w/v) bovine serum albumin was added to a white 384-well PerkinElmer Proxiplate Plus plate. DMSO or 3-fold serially diluted compounds were then added to the Proxiplate followed by addition of Flag-BRD9. After a 10 minute incubation at room temperature, Eu-W1024 anti-FLAG (PerkinElmer, AD0273) was added.

Compound	IC50
CCS(=O)(=O)N(C)Cc1c(OC)cc(-c2cn(C)c(=O)c3cnccc23)cc1OC [US11773085, Compound B35]	< 10 nM
COc1cc(-c2cn(C)c(=O)c3cnccc23)cc(OC)c1CN(C)C(=O)CCCCCOc1cccc2c1C(=O)N(C1CCC(=O)NC1=O)C2=O (configuration not stated) [US11773085, Compound D4]	< 10 nM
